Data as given in patent US9340590B2 (priority 2011, dated 2016).
Positions of bridges follow the written chain, without caps; N, C: chain ends. Residues, ends and D or L forms follow the SMILES beside them.

Legend:
Test in all cases: cell-based
hNav1.3 = hNav1.3 (Homo sapiens, UniProt Q9NY46); settings: IonWorks Quattro, use-dependent block, hNav1.3; read-out: IWQ Use Nav1.3
hNav1.5 = hNav1.5 (Homo sapiens, UniProt Q14524); settings: IonWorks Quattro, use-dependent block, hNav1.5; read-out: IWQ Use Nav1.5
hNav1.7 = hNav1.7 (Homo sapiens, UniProt Q15858); assay type: cell-based; settings: IonWorks Quattro, use-dependent block, hNav1.7; read-out: IWQ Use Nav1.7
Chain of hNav1.7 (Q15858 whole entry, looked up): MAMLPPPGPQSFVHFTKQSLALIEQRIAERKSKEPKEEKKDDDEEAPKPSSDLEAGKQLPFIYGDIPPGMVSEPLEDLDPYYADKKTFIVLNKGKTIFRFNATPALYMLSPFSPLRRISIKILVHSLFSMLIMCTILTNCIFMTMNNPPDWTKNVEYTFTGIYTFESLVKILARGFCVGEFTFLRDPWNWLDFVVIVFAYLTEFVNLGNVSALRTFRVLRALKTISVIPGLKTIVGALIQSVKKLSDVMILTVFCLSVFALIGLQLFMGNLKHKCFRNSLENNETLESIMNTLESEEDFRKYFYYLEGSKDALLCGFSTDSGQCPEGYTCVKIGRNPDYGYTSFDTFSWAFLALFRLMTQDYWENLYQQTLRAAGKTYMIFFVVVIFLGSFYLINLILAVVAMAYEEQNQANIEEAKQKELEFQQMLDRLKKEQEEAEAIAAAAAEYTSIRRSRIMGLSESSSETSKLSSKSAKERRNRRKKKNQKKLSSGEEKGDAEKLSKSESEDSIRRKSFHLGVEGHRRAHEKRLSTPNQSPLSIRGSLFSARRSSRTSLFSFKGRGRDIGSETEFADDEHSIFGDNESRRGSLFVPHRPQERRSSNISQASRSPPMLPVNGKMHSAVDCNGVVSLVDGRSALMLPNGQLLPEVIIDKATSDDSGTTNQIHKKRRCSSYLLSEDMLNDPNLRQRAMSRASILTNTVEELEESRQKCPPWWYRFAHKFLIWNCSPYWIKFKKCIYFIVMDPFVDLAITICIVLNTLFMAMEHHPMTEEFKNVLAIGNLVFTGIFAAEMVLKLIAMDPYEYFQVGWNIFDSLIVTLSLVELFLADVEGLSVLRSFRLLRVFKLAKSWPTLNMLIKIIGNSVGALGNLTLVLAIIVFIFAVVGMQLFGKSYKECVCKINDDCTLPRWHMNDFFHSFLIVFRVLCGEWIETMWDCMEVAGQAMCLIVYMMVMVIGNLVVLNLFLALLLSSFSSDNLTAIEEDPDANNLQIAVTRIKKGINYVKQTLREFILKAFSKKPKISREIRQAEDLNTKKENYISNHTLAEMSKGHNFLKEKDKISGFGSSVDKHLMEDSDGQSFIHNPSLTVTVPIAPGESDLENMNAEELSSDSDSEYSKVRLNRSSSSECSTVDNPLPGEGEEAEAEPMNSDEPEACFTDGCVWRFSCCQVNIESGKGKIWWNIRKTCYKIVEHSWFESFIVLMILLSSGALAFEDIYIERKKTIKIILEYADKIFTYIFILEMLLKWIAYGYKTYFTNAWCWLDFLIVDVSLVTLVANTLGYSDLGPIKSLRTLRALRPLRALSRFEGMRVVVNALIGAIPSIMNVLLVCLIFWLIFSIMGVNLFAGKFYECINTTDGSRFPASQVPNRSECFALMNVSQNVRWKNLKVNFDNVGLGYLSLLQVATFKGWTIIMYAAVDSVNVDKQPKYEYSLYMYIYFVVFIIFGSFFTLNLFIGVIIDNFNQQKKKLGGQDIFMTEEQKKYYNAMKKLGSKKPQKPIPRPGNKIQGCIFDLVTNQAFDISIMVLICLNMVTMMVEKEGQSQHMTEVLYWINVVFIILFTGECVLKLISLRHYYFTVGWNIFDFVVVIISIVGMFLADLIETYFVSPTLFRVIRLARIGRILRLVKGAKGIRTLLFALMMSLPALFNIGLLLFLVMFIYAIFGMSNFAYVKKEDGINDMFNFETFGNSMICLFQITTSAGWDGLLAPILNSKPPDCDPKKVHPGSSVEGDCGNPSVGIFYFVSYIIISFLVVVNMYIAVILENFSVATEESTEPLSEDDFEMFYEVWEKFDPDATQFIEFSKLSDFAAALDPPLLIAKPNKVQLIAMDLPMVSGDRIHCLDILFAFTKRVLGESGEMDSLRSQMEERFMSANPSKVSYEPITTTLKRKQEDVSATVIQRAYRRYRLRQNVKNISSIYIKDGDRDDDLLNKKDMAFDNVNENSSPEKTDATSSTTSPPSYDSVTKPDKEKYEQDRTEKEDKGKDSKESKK

Chain of hNav1.3 (Q9NY46 whole entry, looked up): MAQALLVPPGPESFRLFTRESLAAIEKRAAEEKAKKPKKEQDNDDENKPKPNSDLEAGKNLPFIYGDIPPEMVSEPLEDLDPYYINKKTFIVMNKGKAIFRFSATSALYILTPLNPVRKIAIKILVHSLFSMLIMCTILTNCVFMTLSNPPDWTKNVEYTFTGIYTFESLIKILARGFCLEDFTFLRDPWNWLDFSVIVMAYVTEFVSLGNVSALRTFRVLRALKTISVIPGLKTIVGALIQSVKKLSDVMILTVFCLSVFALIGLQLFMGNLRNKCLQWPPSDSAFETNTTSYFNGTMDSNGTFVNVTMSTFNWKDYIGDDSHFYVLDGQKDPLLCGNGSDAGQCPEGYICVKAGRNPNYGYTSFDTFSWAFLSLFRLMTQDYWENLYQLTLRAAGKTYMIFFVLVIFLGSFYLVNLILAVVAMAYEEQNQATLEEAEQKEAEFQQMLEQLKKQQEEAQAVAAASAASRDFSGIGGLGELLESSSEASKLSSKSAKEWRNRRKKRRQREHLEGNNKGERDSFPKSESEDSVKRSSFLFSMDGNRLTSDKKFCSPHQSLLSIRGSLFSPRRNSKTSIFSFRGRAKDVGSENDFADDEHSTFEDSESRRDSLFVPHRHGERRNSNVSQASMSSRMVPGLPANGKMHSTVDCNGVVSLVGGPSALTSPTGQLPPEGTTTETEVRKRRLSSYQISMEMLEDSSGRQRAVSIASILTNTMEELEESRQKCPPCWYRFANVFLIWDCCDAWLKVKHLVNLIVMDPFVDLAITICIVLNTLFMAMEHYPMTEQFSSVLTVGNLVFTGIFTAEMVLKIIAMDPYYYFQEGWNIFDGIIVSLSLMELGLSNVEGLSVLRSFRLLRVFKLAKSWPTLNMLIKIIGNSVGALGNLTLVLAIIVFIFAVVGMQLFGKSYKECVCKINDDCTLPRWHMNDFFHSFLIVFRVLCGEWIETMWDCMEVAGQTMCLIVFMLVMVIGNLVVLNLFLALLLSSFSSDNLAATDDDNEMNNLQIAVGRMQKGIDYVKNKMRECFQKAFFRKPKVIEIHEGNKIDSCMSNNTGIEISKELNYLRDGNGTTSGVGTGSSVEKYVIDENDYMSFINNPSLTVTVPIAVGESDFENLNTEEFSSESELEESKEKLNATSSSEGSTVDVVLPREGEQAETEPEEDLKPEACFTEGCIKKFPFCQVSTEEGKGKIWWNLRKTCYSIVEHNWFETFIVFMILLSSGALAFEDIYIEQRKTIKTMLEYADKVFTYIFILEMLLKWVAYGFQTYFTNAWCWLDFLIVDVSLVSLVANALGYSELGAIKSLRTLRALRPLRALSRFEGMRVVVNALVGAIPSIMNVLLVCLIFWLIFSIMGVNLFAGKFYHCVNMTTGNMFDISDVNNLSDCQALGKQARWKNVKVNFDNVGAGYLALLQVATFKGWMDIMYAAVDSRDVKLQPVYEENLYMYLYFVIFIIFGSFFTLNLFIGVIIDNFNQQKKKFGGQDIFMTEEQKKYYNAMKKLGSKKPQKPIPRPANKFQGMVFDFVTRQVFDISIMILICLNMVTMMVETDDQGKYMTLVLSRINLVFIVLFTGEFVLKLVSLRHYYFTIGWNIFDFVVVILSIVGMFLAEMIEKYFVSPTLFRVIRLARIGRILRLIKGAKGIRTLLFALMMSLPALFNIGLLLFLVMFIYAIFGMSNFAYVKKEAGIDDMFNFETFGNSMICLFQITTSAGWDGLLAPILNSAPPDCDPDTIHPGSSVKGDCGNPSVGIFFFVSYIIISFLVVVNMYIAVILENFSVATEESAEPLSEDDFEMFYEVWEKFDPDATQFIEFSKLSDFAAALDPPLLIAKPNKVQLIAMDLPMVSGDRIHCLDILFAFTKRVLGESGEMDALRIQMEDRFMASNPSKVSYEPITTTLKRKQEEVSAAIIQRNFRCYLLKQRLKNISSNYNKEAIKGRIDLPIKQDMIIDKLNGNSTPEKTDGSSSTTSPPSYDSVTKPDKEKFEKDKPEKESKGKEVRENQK

Compound	IC50 (hNav1.3) [µM]	IC50 (hNav1.5) [µM]	IC50 (hNav1.7) [µM]
CC[C@H](C)[C@@H]1NC(=O)[C@@H]2CSSC[C@@H]3NC(=O)[C@H](C(C)C)NC(=O)[C@H](CC(C)C)NC(=O)[C@H](CC(N)=O)NC(=O)[C@@H]4CCCN4C(=O)[C@H](CCCNC(=N)N)NC(=O)[C@H](CSSC[C@H](NC(=O)[C@@H](N)CC(=O)O)C(=O)N[C@@H](CC(C)C)C(=O)NCC(=O)N[C@@H](C)C(=O)N[C@@H](CCSC)C(=O)N[C@@H](CCCNC(=N)N)C(=O)N[C@@H](CCCCN)C(=O)N2)NC(=O)[C@H](CSSC[C@@H](C(=O)N[C@@H](CCCCN)C(=O)N[C@@H](Cc2ccc(O)cc2)C(=O)N[C@H](C(=O)N[C@@H](Cc2ccccc2)C(N)=O)C(C)C)NC(=O)[C@H](Cc2c[nH]c4ccccc24)NC(=O)[C@H](CCCCN)NC(=O)[C@H](Cc2c[nH]cn2)NC(=O)[C@H]([C@@H](C)O)NC(=O)[C@H](CCCNC(=N)N)NC(=O)[C@H](CO)NC3=O)NC(=O)[C@H](CCCCN)NC(=O)[C@H](CC(=O)O)NC(=O)[C@H](Cc2c[nH]c3ccccc23)NC(=O)[C@H](CC(=O)O)NC(=O)[C@@H]2CCCN2C1=O [compound 428] (H-DCLGAMRKCIPDWDKCCRPNLVCSRTHKWCKYVF-NH2; disulfide 2-17, 9-23, 16-30)	1.1	> 5	0.67
CC[C@H](C)[C@@H]1NC(=O)[C@@H]2CSSC[C@@H]3NC(=O)[C@H](C(C)C)NC(=O)[C@H](CC(C)C)NC(=O)[C@H](CC(N)=O)NC(=O)[C@@H]4CCCN4C(=O)[C@H](CCCNC(=N)N)NC(=O)[C@H](CSSC[C@H](NC(=O)[C@@H](N)CC(=O)O)C(=O)N[C@@H](CC(C)C)C(=O)N[C@@H](CCC(=O)O)C(=O)N[C@@H](C)C(=O)N[C@@H](CCSC)C(=O)N[C@@H](CCCNC(=N)N)C(=O)N[C@@H](CCCCN)C(=O)N2)NC(=O)[C@H](CSSC[C@@H](C(=O)N[C@@H](CCCCN)C(=O)N[C@@H](Cc2ccc(O)cc2)C(=O)N[C@H](C(=O)N[C@@H](Cc2ccccc2)C(N)=O)C(C)C)NC(=O)[C@H](Cc2c[nH]c4ccccc24)NC(=O)[C@H](CCCCN)NC(=O)[C@H](Cc2c[nH]cn2)NC(=O)[C@H]([C@@H](C)O)NC(=O)[C@H](CCCNC(=N)N)NC(=O)[C@H](CO)NC3=O)NC(=O)[C@H](CCCCN)NC(=O)[C@H](CC(=O)O)NC(=O)[C@H](CC(N)=O)NC(=O)[C@H](CC(=O)O)NC(=O)[C@@H]2CCCN2C1=O [compound 429] (H-DCLEAMRKCIPDNDKCCRPNLVCSRTHKWCKYVF-NH2; disulfide 2-17, 9-23, 16-30)	3.99	> 5	4.64
CC[C@H](C)[C@@H]1NC(=O)[C@@H]2CSSC[C@@H]3NC(=O)[C@H](C(C)C)NC(=O)[C@H](CC(C)C)NC(=O)[C@H](CC(N)=O)NC(=O)[C@@H]4CCCN4C(=O)[C@H](CCCNC(=N)N)NC(=O)[C@H](CSSC[C@H](NC(=O)[C@@H](N)CC(=O)O)C(=O)N[C@@H](CC(C)C)C(=O)NCC(=O)N[C@@H](C)C(=O)N[C@@H](CCSC)C(=O)N[C@@H](CCCNC(=N)N)C(=O)N[C@@H](CCCCN)C(=O)N2)NC(=O)[C@H](CSSC[C@@H](C(=O)N[C@@H](CCCCN)C(=O)N[C@@H](Cc2ccc(O)cc2)C(=O)N[C@H](C(=O)N[C@@H](CCC(=O)O)C(N)=O)C(C)C)NC(=O)[C@H](Cc2c[nH]c4ccccc24)NC(=O)[C@H](CCCCN)NC(=O)[C@H](Cc2c[nH]cn2)NC(=O)[C@H]([C@@H](C)O)NC(=O)[C@H](CCCNC(=N)N)NC(=O)[C@H](CO)NC3=O)NC(=O)[C@H](CCCCN)NC(=O)[C@H](CC(=O)O)NC(=O)[C@H](CC(N)=O)NC(=O)[C@H](CC(=O)O)NC(=O)[C@@H]2CCCN2C1=O [compound 430] (H-DCLGAMRKCIPDNDKCCRPNLVCSRTHKWCKYVE-NH2; disulfide 2-17, 9-23, 16-30)	> 5	> 5	> 5
